ChEMBL document CHEMBL3044973, “Substituted 9-aryl-1,8-acridinedione derivatives and their effects on potassium channels” (Med Chem Res, 2009)

Legend:
Conditions in all cases: Aorta
[1] = target: T1, Potassium channel protein (Rattus norvegicus) (UniProt Q6I9B6); assay: Activation of potassium channel in Rattus norvegicus (rat) aortic rings assessed as inhibition of phenylepinephrine-induced contractile response relative to control
T1 sequence (whole entry): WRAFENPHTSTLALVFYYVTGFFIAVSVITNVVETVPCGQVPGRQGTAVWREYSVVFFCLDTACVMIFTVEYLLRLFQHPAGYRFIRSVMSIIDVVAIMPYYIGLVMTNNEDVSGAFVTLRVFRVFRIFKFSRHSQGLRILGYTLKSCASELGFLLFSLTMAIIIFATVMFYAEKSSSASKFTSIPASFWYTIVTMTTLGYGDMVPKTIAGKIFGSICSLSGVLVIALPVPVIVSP

[2] = target: T1, Potassium channel protein (Rattus norvegicus); assay: Activation of potassium channel in Rattus norvegicus (rat) aortic rings assessed as inhibition of phenylepinephrine-induced contractile response
[3] = target: T1, Potassium channel protein (Rattus norvegicus); assay: Activation of potassium channel in Rattus norvegicus (rat) aortic rings assessed as inhibition of phenylepinephrine-induced contractile response in presence of ATP-sensitive potassium channel inhibitor glibenclamide
[4] = target: T1, Potassium channel protein (Rattus norvegicus); assay: Activation of potassium channel in Rattus norvegicus (rat) aortic rings assessed as inhibition of phenylepinephrine-induced contractile response in presence of calcium activated potassium channel inhibitor TEA
[5] = target: T1, Potassium channel protein (Rattus norvegicus); assay: Activation of potassium channel in Rattus norvegicus (rat) aortic rings assessed as inhibition of phenylepinephrine-induced contractile response in presence of ATP-sensitive potassium channel inhibitor glibenclamide relative to control
[6] = target: T1, Potassium channel protein (Rattus norvegicus); assay: Activation of potassium channel in Rattus norvegicus (rat) aortic rings assessed as inhibition of phenylepinephrine-induced contractile response in presence of calcium activated potassium channel inhibitor TEA relative to control

Row | SMILES | Emax [1] [%] | Activity [2] | pD2 [2] | Activity [3] | Activity [4] | Emax [5] [%] | Emax [6] [%]
1 | CC1CC(=O)C2=C(C1)NC1=C(C(=O)CC(C)C1)C2c1c(C(F)(F)F)ccc(Cl)c1F (stereo unspecified) | 52.2 | Dose-dependent effect | 4.38 | Dose-dependent effect | Dose-dependent effect |  | 
2 | CC1CC(=O)C2=C(C1)NC1=C(C(=O)CC(C)C1)C2c1cccc(C(F)(F)F)c1Cl (stereo unspecified) | 63 | Dose-dependent effect | 4.23 | Dose-dependent effect | Dose-dependent effect | 29 | 19.8
3 | CC1CC(=O)C2=C(C1)NC1=C(C(=O)CC(C)C1)C2c1cccc(C(F)(F)F)c1F (stereo unspecified) |  | Dose-dependent effect |  | Dose-dependent effect | Dose-dependent effect |  | 
4 | CC(N/C(=N\C#N)Nc1ccncc1)C(C)(C)C (stereo unspecified) | 69.5 | Dose-dependent effect | 4.71 | Dose-dependent effect | Dose-dependent effect | 20.8 | 18.5
5 | CC1CC(=O)C2=C(C1)NC1=C(C(=O)CC(C)C1)C2c1c(F)cccc1C(F)(F)F (stereo unspecified) | 59.5 | Dose-dependent effect | 4.6 | Dose-dependent effect | Dose-dependent effect | 23.8 | 21.8
6 | CC1CC(=O)C2=C(C1)NC1=C(C(=O)CC(C)C1)C2c1ccc(F)c(C(F)(F)F)c1 (stereo unspecified) | 55 | Dose-dependent effect | 4.13 | Dose-dependent effect | Dose-dependent effect | 22.4 | 15.5
7 | CC1CC(=O)C2=C(C1)NC1=C(C(=O)CC(C)C1)C2c1ccc(F)cc1C(F)(F)F (stereo unspecified) |  | Dose-dependent effect |  | Dose-dependent effect | Dose-dependent effect |  | 
8 | CC1CC(=O)C2=C(C1)NC1=C(C(=O)CC(C)C1)C2c1cc(C(F)(F)F)ccc1Cl (stereo unspecified) |  | Dose-dependent effect |  | Dose-dependent effect | Dose-dependent effect |  | 
9 | CC1CC(=O)C2=C(C1)NC1=C(C(=O)CC(C)C1)C2c1ccc(C(F)(F)F)cc1F (stereo unspecified) | 57.4 | Dose-dependent effect | 4.12 | Dose-dependent effect | Dose-dependent effect | 27.2 | 27.7
10 | CC1CC(=O)C2=C(C1)NC1=C(C(=O)CC(C)C1)C2c1cc(C(F)(F)F)ccc1F (stereo unspecified) |  | Dose-dependent effect |  | Dose-dependent effect | Dose-dependent effect |  | 
11 | CC1CC(=O)C2=C(C1)NC1=C(C(=O)CC(C)C1)C2c1cc(C(F)(F)F)cc(Cl)c1F (stereo unspecified) |  | Dose-dependent effect |  | Dose-dependent effect | Dose-dependent effect |  | 
12 | CC1CC(=O)C2=C(C1)NC1=C(C(=O)CC(C)C1)C2c1ccc(Cl)c(C(F)(F)F)c1 (stereo unspecified) |  | Dose-dependent effect |  | Dose-dependent effect | Dose-dependent effect |  | 
13 | CC1CC(=O)C2=C(C1)NC1=C(C(=O)CC(C)C1)C2c1cc(F)cc(C(F)(F)F)c1 (stereo unspecified) |  | Dose-dependent effect |  | Dose-dependent effect | Dose-dependent effect |  | 
